Experimental data reported in the NIST ThermoML archive (doi:10.1016/j.fluid.2011.07.014).

Settings: Liquid, Ebulliometric method (Recirculating still)

CC(C)=C(C)C [2,3-dimethyl-2-butene]
Settings	vapor or sublimation pressure [kPa]
336.5 K	73.5
338.2 K	77.5
340.6 K	84.2
342.65 K	90.2
344.2 K	94.7
346.24 K	101.2
347.65 K	105.3
350.1 K	113.9
353.46 K	125.5
355.35 K	133.3
357.22 K	140.4
362.8 K	164.8
365.76 K	179.5
368.05 K	190.9
370.36 K	202.8
373.18 K	218.8
375.2 K	230.4
376.5 K	238.5
379.15 K	255.1
381.62 K	271.2
383.05 K	281.3
384.7 K	292.1
386.65 K	306.8
388.2 K	318.4
